Data: paper PMC8197800, “Structure and Dynamics of Meprin β in Complex with a Hydroxamate-Based Inhibitor” (International Journal of Molecular Sciences, 2021)
pIC50, pKd, pKi: −log10 of the molar value. Read-outs that look alike come from different tables or passages of the source.

Columns and labels:
Meprin β = target: T1, Meprin β (Homo sapiens, UniProt Q16820); test: Meprin β enzyme inhibition (cleavage of quenched fluorogenic peptide Abz-YVAEAPK(Dnp)G-OH); assay type: biochemical
T1 construct: For the purified, truncated variant Meprin β^62–595 (MβΔC), despite reduced protein yield, identical specific activity was detected; His-tag (N, cleaved yes); made in house; host or cells: Pichia pastoris
T1 sequence (Q16820 62-595): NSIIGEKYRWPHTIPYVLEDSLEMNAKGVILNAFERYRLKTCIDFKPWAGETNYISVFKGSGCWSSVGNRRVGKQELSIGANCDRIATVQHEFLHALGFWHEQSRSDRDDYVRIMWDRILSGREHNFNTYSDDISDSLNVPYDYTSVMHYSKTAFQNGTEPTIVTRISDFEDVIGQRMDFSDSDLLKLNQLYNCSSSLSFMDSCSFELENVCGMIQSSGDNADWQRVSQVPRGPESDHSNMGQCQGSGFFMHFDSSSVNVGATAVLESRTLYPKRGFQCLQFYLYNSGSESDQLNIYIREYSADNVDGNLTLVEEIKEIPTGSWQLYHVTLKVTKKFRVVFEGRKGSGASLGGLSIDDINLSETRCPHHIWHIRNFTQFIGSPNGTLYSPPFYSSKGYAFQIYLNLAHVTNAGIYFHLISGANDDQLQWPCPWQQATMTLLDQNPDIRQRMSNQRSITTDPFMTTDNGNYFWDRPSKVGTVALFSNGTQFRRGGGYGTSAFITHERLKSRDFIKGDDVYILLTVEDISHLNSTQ
Procedure: The enzymatic activity of Meprin β was determined, essentially as described previously. The assay is based on the change of fluorescence intensity due to cleavage of the internally quenched peptide substrate Abz-YVAEAPK(Dnp)G-OH (λex 340 nm/λem 420 nm). For activity determination during expression and purification, the proenzyme was activated by trypsin. For activation, 100 µL of cleavage buffer (50 mM Tris/HCl, 10 mM CaCl2, pH 7.5), 50 µL Meprin β solution and 50 µL bovine trypsin 500 µg/mL (Sigma Aldrich) were mixed and incubated for 15 min at 30 °C. An aliquot of the reaction (50 µL) was mixed again with 150 µL assay buffer consisting of 40 mM Tris/HCl, pH 8.0, 0.05% Brij 30. The reaction was initiated by addition of 50 µL of substrate (final concentration 50 µM), which was dissolved in assay buffer.

Meprin β62–595 (MβΔC) [1] = target: T2, Meprin β62–595 (MβΔC) (Homo sapiens, UniProt Q16820); test: Isothermal titration calorimetry (ITC) of inhibitors to Meprin β62–595 (MβΔC); assay type: binding; design: H (one-site fit) / S (one-site fit): unit not given here; conditions: for H (one-site fit) / K (association constant, one-site fit) / N (stoichiometry, one-site fit) / S (one-site fit): ITC fit; for pKd / ΔH (binding enthalpy) / −ΔS * T (binding entropy term): ITC, 30 °C
T2 construct: His-tag (N, cleaved yes); α-mating factor secretion signal (S. cerevisiae) (N, cleaved yes); made in house; host or cells: Pichia pastoris X33
T2 sequence (Q16820 62-595): T1 sequence (Q16820 62-595)
Procedure: The binding affinity (KD), binding enthalpy (ΔH), binding entropy (ΔS) and stoichiometry (N) of different Meprin β inhibitors to Meprin β^62–595 (MβΔC) were determined by isothermal titration of the inhibitors to the enzyme at 30 °C using a VP-ITC microcalorimeter (MicroCal). Prior to the binding analysis, the purified Meprin β^62–595 (MβΔC) was dialyzed extensively against 40 mM Tris pH 8.0 (±150 mM NaCl). The inhibitors were diluted 1:50 from DMSO stock solutions into dialysis buffer and 2% (v/v) DMSO were added to the dialyzed enzyme solution immediately before starting the titration experiment. The instrument was operated according to the manufacturer’s instructions and the data analyzed using MicroCal ORIGIN software. The obtained binding heat was corrected by the dilution heat of the ligand, which was recorded by titration of the inhibitor (1:50 diluted) into the dialysis buffer containing 2% (v/v) DMSO. The corrected data were evaluated by a single-site binding model calculating N, KD, ΔH and ΔS.
1. MWT-S-270 (-NaCl) 2. MWT-S-270 (+ NaCl)
Figure S7: ITC binding curves for the titration of Meprin β62-595 (MβΔC) with different inhibitors. […]

Meprin β62–595 (MβΔC) [2] = target: T2, Meprin β62–595 (MβΔC); test: Proteolytic stability of concentrated Meprin β62–595 (MβΔC) with inhibitor, SDS-PAGE; conditions: 15 °C; for stability of Meprin β62–595 (MβΔC) with inhibitor added: SDS-PAGE; for degradation of Meprin β62–595 (MβΔC) on addition of inhibitor: up to 15 days, molar ratio 1:1.3 (actinonin), 1:1.2 (MWT-S-270)
Procedure: For reduction of potential heterogeneity, flexible glycosyl chains were removed by deglycosylation. The influence of different detergents and protein concentrations on the deglycosylation and stability of the enzyme has been investigated and analyzed by SDS-PAGE. […] To prevent degradation, the non-specific Meprin β inhibitor actinonin or the specific Meprin β inhibitor MWT-S-270 was added to the protein solution in a molar ratio of 1:1.3 and 1:1.2, respectively.
For the removal of surface-exposed glycosyl chains, a deglycosylation was performed prior to crystallization.
(MβΔC) before and after deglycosylation by EndoH under native conditions.
(1 picture or pasted object on this page, not shown here)

Meprin α = conditions: cited from earlier work
[3] = 40 mM Tris pH 8.0 (no NaCl), read-out: Ki

Structure (SMILES)	H (one-site fit) (Meprin β62–595 (MβΔC) [1]; Figure S7, -NaCl)	K (association constant, one-site fit) (Meprin β62–595 (MβΔC) [1]; Figure S7, -NaCl)	N (stoichiometry, one-site fit) (Meprin β62–595 (MβΔC) [1]; Figure S7, -NaCl)	S (one-site fit) (Meprin β62–595 (MβΔC) [1]; Figure S7, -NaCl)	pKd (Meprin β62–595 (MβΔC) [1]; 40 mM Tris pH 8.0 (no NaCl))	ΔH (binding enthalpy) (Meprin β62–595 (MβΔC) [1]; 40 mM Tris pH 8.0 (no NaCl)) [kcal/mol]	−ΔS * T (binding entropy term) (Meprin β62–595 (MβΔC) [1]; 40 mM Tris pH 8.0 (no NaCl)) [kcal/mol]	stability of Meprin β62–595 (MβΔC) with inhibitor added (Meprin β62–595 (MβΔC) [2])	degradation of Meprin β62–595 (MβΔC) on addition of inhibitor (Meprin β62–595 (MβΔC) [2])	pIC50 (Meprin β; 40 mM Tris pH 8.0 (no NaCl))	pKi (Meprin β; [3])	also measured
O=C(CN(Cc1cccc(C(=O)O)c1)Cc1cccc(C(=O)O)c1)NO [1 (270), 3-[[(3-Carboxyphenyl)methyl-[2-(hydroxyamino)-2-oxoethyl]amino]methyl]benzoic acid]	-3884 ±41.29	6.31E7 ±1.05E7	0.939 ±0.00648	22.9	7.80	-3.884	-6.939	at least 15 days	prevented	–	–	pIC50 (Meprin β; 150 mM NaCl, 40 mM Tris pH 8.0): 6.75; pKi (Meprin β; 150 mM NaCl, 40 mM Tris pH 8.0, read-out: Ki): 6.70; pKi (Meprin β; Ki, 40 mM Tris pH 8.0 (no NaCl)): 7.54; H (one-site fit) (Meprin β62–595 (MβΔC) [1]; Figure S7, + NaCl): -4554 ±133,1; K (association constant, one-site fit) (Meprin β62–595 (MβΔC) [1]; Figure S7, + NaCl): 2,50E6 ±5,30E5; N (stoichiometry, one-site fit) (Meprin β62–595 (MβΔC) [1]; Figure S7, + NaCl): 1,13 ±0,0246; S (one-site fit) (Meprin β62–595 (MβΔC) [1]; Figure S7, + NaCl): 14,2; pKd (Meprin β62–595 (MβΔC) [1]; 150 mM NaCl, 40 mM Tris pH 8.0): 6.40; ΔH (binding enthalpy) (Meprin β62–595 (MβΔC) [1]; 150 mM NaCl, 40 mM Tris pH 8.0): -4.554 kcal/mol; −ΔS * T (binding entropy term) (Meprin β62–595 (MβΔC) [1]; 150 mM NaCl, 40 mM Tris pH 8.0): -4.303 kcal/mol; pIC50 (Meprin α; read-out: IC50 towards Meprin α): 4.79; stronger inhibition of Meprin β in comparison to Meprin α (Meprin α; selectivity Meprin β over Meprin α): more than 100 fold
O=C(CN(Cc1cccc(C(=O)O)c1)Cc1ccc2c(c1)OCO2)NO [2 (416)]	-3966 ±57,47	4,21E6 ±6,18E5	1,06 ±0,0110	17,2	6.63	-3.966	-5.212	–	–	6.55	6.72	–
O=C(CN(Cc1ccccc1)Cc1cccc(C(=O)O)c1)NO [3 (396)]	-1138 ±32.08	1.34E6 ±2.22E5	1.09 ±0.0225	24.3	6.13	-1.138	-7.363	–	–	5.89	5.86	–
CCCCC[C@H](CC(=O)NO)C(=O)N[C@H](C(=O)N1CCC[C@H]1CO)C(C)C [actinonin, reference compound]	–	–	–	–	–	–	–	at least 15 days	prevented	–	–	–
